One assay deals with L1210. Kind of assay: Cytotoxicity against mouse L1210 cells after 72 hrs by MTT assay. The format is functional, cell-based. Conditions: L1210, 72 h. A general note: Tetrazolium dyes change colour on reduction, which living cells bring about.
Another assay concerns B16. Briefly: Cytotoxicity against mouse B16 cells after 72 hrs by MTT assay. In kind it is functional, cell-based. Conditions: B16, 72 h.
The test system of assay [1] is A10. Briefly: Reduction of microtubules in human A10 cells at 40 uM. In kind it is functional. Also noted: scale not given: the % may be the effect or the level left.
Assay [2] concerns A10. Briefly: Reduction of microtubules in […] A10 cells. The format is functional, cell-based. Conditions: Rattus norvegicus.

Consider `COc1ccc(OC)c(C2=NN(C(C)=O)C(c3ccc(OC)c([N+](=O)[O-])c3)C2)c1` (stereo not drawn), for which the IC50 was 40 µM with L1210 and 58 µM in the assay on B16.

On to `COc1ccc(C2CC(c3cc(OC)c(OC)c(OC)c3)=NN2C(C)=O)cc1[N+](=O)[O-]` (stereo not drawn), for which the IC50 is 52 µM in the assay on L1210 and > 100 µM in the assay with B16.

In the case of `COc1ccc(C2CC(c3cc(OC)c(OC)c(OC)c3)=NN2)cc1OC` (stereo not drawn), the values for the IC50 in the assay on L1210 and with B16 were 42 µM and 44 µM, respectively.

As for `COc1ccc(OC)c(C2=NN(C(C)=O)C(c3ccc(OC)c(OC)c3)C2)c1` (stereo not drawn), the results for the IC50 with L1210 and in the assay on B16 were 28 µM and 62 µM, respectively.

With `COc1cc(OC)c(C2CC(c3cc(OC)ccc3OC)=NN2C(C)=O)c(OC)c1` (stereo not drawn), the figures for the 50% inhibitory concentration (IC50) in the assay with L1210 and with B16 were 33 µM and 69 µM, respectively.

`COc1ccccc1C1CC(c2cc(OC)c(OC)c(OC)c2)=NN1C(C)=O` (stereo not drawn): the IC50 with L1210 is 43 µM; in the assay on B16, > 100 µM.

Consider `COc1cccc(C2CC(c3cc(OC)c(OC)c(OC)c3)=NN2C(C)=O)c1` (stereo not drawn), for which the IC50 in the assay with L1210 was 44 µM; with B16, > 100 µM.

`COc1cc(C2=NN(C(C)=O)C(c3ccc(Cl)cc3)C2)cc(OC)c1OC` (stereo not drawn): the IC50 in the assay on L1210 came to 30 µM; with B16, 35 µM.

In the assay on A10 [1], `COc1ccc(C2CC(c3cc(OC)c(OC)c(OC)c3)=NN2C(C)=O)cc1O` (stereo not drawn) displayed an Activity of 10%. The IC50 with L1210 and in the assay with B16 was > 100 µM throughout.

Take `COc1ccc(C2CC(c3cc(OC)c(OC)c(OC)c3)=NN2)cc1O` (stereo not drawn): in the assay on A10 [2], the response was half-maximal at 7.1 µM (EC50). Also, the values for the IC50 in the assay with L1210 and in the assay with B16 were 0.5 µM and 2.1 µM, respectively.

Consider `COc1ccc(OC)c(C2CC(c3cc(OC)c(OC)c(OC)c3)=NN2C(C)=O)c1` (stereo not drawn), for which the IC50 with L1210 and in the assay with B16 was > 100 µM each time.

Take `COc1cc(C2=NN(C(C)=O)C(c3ccc([N+](=O)[O-])cc3)C2)cc(OC)c1OC` (stereo not drawn): the results for the IC50 in the assay with L1210 and with B16 were 42 µM and 51 µM, respectively.

Turning to `COc1cc(C2=NNC(c3cc(OC)c(OC)c(OC)c3)C2)cc(OC)c1OC` (stereo not drawn), the half-inhibitory concentration (IC50) in the assay on L1210 amounted to 24 µM; with B16 it was 56 µM.

Broadly, the IC50 is the point on the concentration scale where inhibition reaches its midpoint. As usually defined, the EC50 is the concentration that produces a half-maximal response.
